Assays:
Arabidopsis thaliana = assay: Effect on the root proliferation of Arabidopsis thaliana; type: in vivo, Arabidopsis thaliana (ecotype Columbia); conditions: for Concentration with highest activity: number of lateral roots; for Activity (%) [10^-8 mol.l^-1 Kin = 100%]: number of lateral roots (% of control), at concentration with highest activity
Procedure: Arabidopsis thaliana seeds (ecotype Columbia) were sterilized with 70% ethanol and 0.1% Triton X-100 and then washed with 70% ethanol containing 0.01% Triton X-100. Then the seeds were transferred to vertical square petri dishes (11 seeds per dish) on a solid medium consisting of MS (2.15 g/l), MES (0.5 g/l), sucrose (1 g/l), agar (11 g/l), buffered to pH 5.8, and various concentrations of tested compounds. The compounds were dissolved in DMSO, thus 0.05% DMSO was used as a control solution. After incubation for 3 days in darkness at 4°C, the seeds were germinated and grown in an environmental chamber (fluorescence light intensity 150 µE m^-2 s^-1, humidity 55%, 16 h day/8 h night, 22°C). […] The number of lateral roots was scored under a stereomicroscope. […] In addition, compounds with tetrahydropyranyl protection at N9 slightly increase the number of emerged lateral roots (Fig 3C). […] Table 6: […]

[1] = Calcein AM cytotoxicity assay, B10A.4 cells; conditions: mouse; for CC50 at 72 h: b10a.4 macrophages
Procedure: (§1) All compound concentrations were examined in duplicates. […] Zero cytotoxicity is a basic prerequisite for the use of these substances in cosmetical applications. To assess the antitumor activity, the toxicity of new derivatives on panels containing cell lines of different histogenic and species origin was tested (Table 5). […] The compounds listed in Table 5 can be divided into 2 groups.
(§2) The first group contains "classical cytokinins" represented by 6-substituted purines (their effects are already known). The second group includes novel 2-fluoro-N6-substituted-9-(2-oxacycloalkyl)-9H-purine-6-amine derivatives. […] Low cytotoxicity (high IC50 value) of the compounds is the basic prerequisite for cosmetic and medical applications. […] Table 5: Cytotoxicity of novel compounds for different normal cell lines tested / IC50 (µmol/L)

[2] = Calcein AM cytotoxicity assay, BJ cells; conditions: human; for CC50 at 72 h: bj fibroblasts
Procedure: as §1, §2

[3] = Calcein AM cytotoxicity assay, NIH3T3 cells; conditions: mouse; for CC50 at 72 h: nih3t3 cells
Procedure: as §1, §2

Zea mays seedlings = assay: Effect on development of Zea mays seedlings (hydroponic); type: in vivo, Zea mays cv. CELLUX; conditions: for Root dry mass (%) [4 x 10^-8 mol.l^-1 Kin = 100%] / Shoot dry mass (%) [10^-6 mol.l^-1 Kin = 100%]: at concentration with highest activity
Procedure: Maize seeds (Zea mays cv. CELLUX) were imbibed in tap water and germinated on a wetted filter paper. After 3 days, the germinated seedlings were transferred to aerated hydroponic tanks filled with Hoagland's nutrient solution. The plants were grown in an environmental chamber with 16 h light period (250 μE m^-2 s^-1) at 27°C and 8 h dark period at 20°C. Tested compounds diluted in DMSO were added to nutrient solution immediately when seedlings were nested in the tanks or after two additional days of cultivation. Control plants were grown in parallel with addition of corresponding amount of DMSO (up to 0.01%). Root and leaf tissues of ten plants were harvested at different time points after the application of the compounds, immediately frozen in liquid nitrogen and used for cytokinin content and transcript level analysis. Length of primary root and the first leaf were determined with ruler on sets of twelve plants, each cultivated in the independent tank (for every cytokinin application repeated ten times). Dry mass of root system and the aerial part was determined after cutting off the kernel and desiccation in dryer for two days at 60°C. […] Fig. 4) and up to 1 micromolar concentration when more seedlings were in the solution (approx. 50 seedlings per 1 liter; Fig. 5). […] Table 7: […]

excised wheat leaf tips = assay: Senescence inhibition on winter wheat leaf segments (chlorophyll retention); parameters: species or system Triticum aestivum cv. Hereward; conditions: for Concentration with highest activity: retention of chlorophyll; for Activity (%) [10^-4mol.l^-1 KTHP = 100%] / Emax: retention of chlorophyll in excised wheat leaf tips, 96 h in the dark, at concentration with highest activity; for Emax: Triticum aestivum, foliar, read-out: Activity (%) [10^-4mol.l^-1 KTHP = 100%]
Procedure: Seeds of winter wheat, Triticum aestivum cv. Hereward, were washed under running water for 24 hours and then sown on vermiculite soaked with the Knop's solution. They were placed in the grow chamber at 25 °C with a 16/8 h light period at 50 μmol.m^-2.s^-1. After 7 days, the first leaf was fully developed and the second leaf had started to grow. A tip section of the first leaf, approximately 35 mm long, was removed from 5 seedlings and trimmed slightly to a combined weight of 100 mg. The basal ends of the five leaf tips were placed in the wells of a microtiter polystyrene plate containing 150 μl of the solution of the tested compound each. The entire plate was inserted into a plastic box lined with paper tissues soaked with distilled water to prevent leaf sections from drying out. […] The absorbance of the extract was recorded at 665 nm. In addition, chlorophyll extracts from fresh leaves and leaf tips incubated in deionised water were measured. From the obtained data, the concetration with the highest activity was selected for each compound tested. Relative activity of the compound at this concentration was calculated (Table 7). […] The values shown are means of five replicates and the whole experiment was repeated twice. The compounds to be tested were dissolved in dimethylsulfoxide (DMSO) and the solution brought up to 10^-3 M with distilled water. […] The compounds listed in Table 7 can be divided into 2 groups. The first group contains "classical 6,9-disubstituted purines (KTHP as a control)" known in prior art. […] Table 9: […]

[4] = Cytotoxicity IC50, B10A.4, first column headed B10A.4

SMILES | root elongation and branching (in words) (Arabidopsis thaliana; already in micromolar concentration) | CC50 at 72 h [1, 4] [µM] | CC50 at 72 h ([1]; Cytotoxicity IC50, B10A.4, second column headed B10A.4) [µM] | CC50 at 72 h [2] [µM] | CC50 at 72 h [3] [µM] | root elongation and lateral root proliferation (in words) (Zea mays seedlings; up to 1 µM concentration) | Concentration with highest activity (excised wheat leaf tips) | Activity (%) [10^-4mol.l^-1 KTHP = 100%] (excised wheat leaf tips) | IC50 at 72 h [1, 4] [µM] | IC50 at 72 h [2] [µM] | IC50 at 72 h [3] [µM] | Concentration with highest activity (Arabidopsis thaliana) | Activity (%) [10^-8 mol.l^-1 Kin = 100%] (Arabidopsis thaliana) | Root dry mass (%) [4 x 10^-8 mol.l^-1 Kin = 100%] (Zea mays seedlings) | Shoot dry mass (%) [10^-6 mol.l^-1 Kin = 100%] (Zea mays seedlings) | Concentration with highest activity (Zea mays seedlings; root dry mass) | Concentration with highest activity (Zea mays seedlings; shoot dry mass) | Emax (excised wheat leaf tips) [%]
COc1cccc(CNc2ncnc3nc[nH]c23)c1 [6-(3-methoxybenzylamino)purine, reference compound] | significantly inhibits root elongation and branching |  |  |  |  |  |  |  |  |  |  |  |  |  |  |  |  | 
CC(C)=CCNc1nc(F)nc2c1ncn2C1CCCO1 (centres unmarked) [Compound 13] |  | > 167 | > 167 | > 167 | > 167 | does not inhibit root elongation and lateral root proliferation | 10^-4 mol.l^-1 | 109.8 (± 13) % |  |  |  |  |  |  |  |  |  | 
Oc1cccc(CNc2nc(F)nc3c2ncn3C2CCCO2)c1 (centres unmarked) [Compound 15, 2-Fluoro-6-[(3-hydroxybenzyl)amino]-9-(tetrahydrofuran-2-yl)-9H-purine] |  |  |  |  |  |  |  |  | > 167 | > 167 | > 167 | 10^-5 mol.l^-1 | 24.8 (± 4) % | 201.4 (± 22) % | 124.3 (± 8) % | 10^-7 mol.1^-1 | 10^-6 mol.1^-1 | 133
COc1ccccc1CNc1nc(F)nc2c1ncn2C1CCCO1 (centres unmarked) [Compound 17, 2-Fluoro-6-[(2-methoxybenzyl)amino]-9-(tetrahydrofuran-2-yl)-9H-purine] |  |  |  |  |  |  |  |  | > 167 | > 167 | > 167 | 10^-5 mol.l^-1 | 30.7 (± 7) % | 241.5 (± 19) % | 139.8 (± 7) % | 10^-7 mol.1^-1 | 10^-6 mol.1^-1 | 104
COc1cccc(CNc2nc(F)nc3c2ncn3C2CCCO2)c1 (centres unmarked) [Compound 18] |  | > 167 |  | > 167 | > 167 |  | 10^-4 mol.l^-1 | 175.8 (± 10) % |  |  |  | 10^-5 mol.l^-1 | 28.6 (± 2) % | 240.6 (± 22) % | 148.2 (± 8) % | 10^-7 mol.1^-1 | 10^-6 mol.1^-1 | 
Oc1cc(Cl)cc(CNc2nc(F)nc3c2ncn3C2CCCO2)c1 (centres unmarked) [Compound 27] |  |  |  |  |  |  |  |  |  |  |  | 10^-5 mol.l^-1 | 45.7 (± 6) % | 194.5 (± 18) % | 116.3 (± 7) % | 10^-7 mol.1^-1 | 10^-6 mol.1^-1 | 
Oc1cc(F)cc(CNc2nc(F)nc3c2ncn3C2CCCO2)c1 (centres unmarked) [Compound 28] |  |  |  |  |  |  |  |  |  |  |  | 10^-5 mol.l^-1 | 49.3 (± 9) % | 190.2 (± 20) % | 111.8 (± 6) % | 10^-7 mol.1^-1 | 10^-6 mol.1^-1 | 
Fc1nc(NCc2ccco2)c2ncn(C3CCCCO3)c2n1 (centres unmarked) [Compound 57, 2-Fluoro-6-furfurylamino-9-(tetrahydro-2H-pyran-2-yl)-9H-purine] |  |  |  |  |  |  |  |  | 149 | 132 | 138 | 10^-6 mol.l^-1 | 68.4 (± 8) % | 183.9 (± 24) % | 112.8 (± 11) % | 10^-7 mol.1^-1 | 10^-6 mol.1^-1 | 111
COc1ccc(CNc2nc(F)nc3c2ncn3C2CCCCO2)o1 (centres unmarked) [Compound 63] |  | > 167 |  | > 167 | > 167 |  | 10^-4 mol.l^-1 | 97 (± 5) % |  |  |  |  |  |  |  |  |  | 
Fc1nc(NCc2ccccc2)c2ncn(C3CCCCO3)c2n1 (centres unmarked) [Compound 64, 2-Fluoro-6-benzylamino-9-(tetrahydro-2H-pyran-2-yl)-9H-purine] |  |  |  |  |  |  |  |  | 121 | 124 | 128 | 10^-6 mol.l^-1 | 61.2 (± 3) % | 168.9 (± 16) % | 108.9 (± 8) % | 10^-7 mol.1^-1 | 10^-6 mol.1^-1 | 110
Oc1ccc(CNc2nc(F)nc3c2ncn3C2CCCCO2)cc1 (centres unmarked) [Compound 66, 2-Fluoro-6-[(4-hydroxybenzyl)amino]-9-(tetrahydro-2H-pyran-2-yl)-9H-purine] |  |  |  |  |  |  |  |  | > 167 | > 167 | > 167 |  |  |  |  |  |  | 74
COc1ccc(CNc2nc(F)nc3c2ncn3C2CCCCO2)cc1 (centres unmarked) [Compound 68, 2-Fluoro-6-[(4-methoxybenzyl)amino]-9-(tetrahydro-2H-pyran-2-yl)-9H-purine] |  |  |  |  |  |  |  |  | > 167 | > 167 | > 167 |  |  |  | 118.6 (± 9) % |  | 10^-6 mol.1^-1 | 155
CC(C)=CCNc1nc(F)nc2c1ncn2C1CCCCO1 (centres unmarked) [Compound 69] |  | 146 |  | 153 | 142 |  | 10^-4 mol.l^-1 | 108 (± 13) % |  |  |  |  |  |  |  |  |  | 
C/C(=C\CNc1nc(F)nc2c1ncn2C1CCCCO1)CO (centres unmarked) [Compound 70] |  | > 167 |  | > 167 | > 167 |  | 10^-4 mol.l^-1 | 126 (± 12) % |  |  |  |  |  |  |  |  |  | 
C/C(=C/CNc1nc(F)nc2c1ncn2C1CCCCO1)CO (centres unmarked) [Compound 71] |  | > 167 |  | > 167 | > 167 |  | 10^-4 mol.l^-1 | 113 (± 18) % |  |  |  | 10^-6 mol.l^-1 | 71.8 (± 7) % | 172.5 (± 14) % | 111.1 (± 6) % | 10^-7 mol.1^-1 | 10^-6 mol.1^-1 | 
